Source: ChEMBL document CHEMBL4622953, “Synthesis and biological evaluation of thioadatanserin and its dialkylated products as partial 5-HTR1A agonists and 5-HTR2A antagonists for potential use in depression and anxiety disorders” (Bioorg Med Chem Lett, 2020)
Structures can show the parent of a compound that is named as a salt.

Experiments:
Type in all cases: cell-based
[1] = target: 5-hydroxytryptamine receptor 2A (Homo sapiens, UniProt P28223); experiment: Antagonist activity at recombinant human 5-HT2A expressed in human U2OS cells by pathhunter beta-arrestin assay
[2] = target: T1, 5-hydroxytryptamine receptor 2C (Homo sapiens, UniProt P28335); experiment: Antagonist activity at recombinant human 5-HT2C expressed in human U2OS cells by pathhunter beta-arrestin assay
T1 sequence (P28335 whole entry): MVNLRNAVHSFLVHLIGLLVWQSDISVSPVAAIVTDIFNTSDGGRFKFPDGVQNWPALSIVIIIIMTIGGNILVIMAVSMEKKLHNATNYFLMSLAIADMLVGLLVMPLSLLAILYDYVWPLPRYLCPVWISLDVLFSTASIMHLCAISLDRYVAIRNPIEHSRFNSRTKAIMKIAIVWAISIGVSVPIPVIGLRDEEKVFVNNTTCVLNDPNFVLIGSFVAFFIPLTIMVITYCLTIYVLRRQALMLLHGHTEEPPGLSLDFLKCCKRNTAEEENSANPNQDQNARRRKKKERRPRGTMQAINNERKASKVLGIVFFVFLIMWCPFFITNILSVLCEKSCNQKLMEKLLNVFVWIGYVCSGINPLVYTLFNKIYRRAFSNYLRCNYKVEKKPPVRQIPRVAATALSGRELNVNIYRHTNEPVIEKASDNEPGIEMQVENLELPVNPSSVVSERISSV

[3] = target: T2, 5-hydroxytryptamine receptor 1A (Homo sapiens, UniProt P08908); experiment: Partial agonist activity at recombinant human 5-HT1A expressed in CHO-K1 cells by pathhunter beta-arrestin assay
T2 sequence (P08908 whole entry): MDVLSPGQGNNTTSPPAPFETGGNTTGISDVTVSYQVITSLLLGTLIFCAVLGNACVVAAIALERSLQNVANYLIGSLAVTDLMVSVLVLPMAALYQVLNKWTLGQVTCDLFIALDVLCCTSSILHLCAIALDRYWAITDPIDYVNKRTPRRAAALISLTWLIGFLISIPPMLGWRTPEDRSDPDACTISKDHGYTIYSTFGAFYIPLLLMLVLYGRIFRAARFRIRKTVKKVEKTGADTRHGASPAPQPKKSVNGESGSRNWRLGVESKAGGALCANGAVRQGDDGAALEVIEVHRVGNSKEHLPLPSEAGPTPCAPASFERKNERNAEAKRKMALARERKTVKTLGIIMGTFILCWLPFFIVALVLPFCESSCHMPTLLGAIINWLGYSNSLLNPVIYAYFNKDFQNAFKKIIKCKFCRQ

Chain of 5-hydroxytryptamine receptor 2A (P28223 whole entry): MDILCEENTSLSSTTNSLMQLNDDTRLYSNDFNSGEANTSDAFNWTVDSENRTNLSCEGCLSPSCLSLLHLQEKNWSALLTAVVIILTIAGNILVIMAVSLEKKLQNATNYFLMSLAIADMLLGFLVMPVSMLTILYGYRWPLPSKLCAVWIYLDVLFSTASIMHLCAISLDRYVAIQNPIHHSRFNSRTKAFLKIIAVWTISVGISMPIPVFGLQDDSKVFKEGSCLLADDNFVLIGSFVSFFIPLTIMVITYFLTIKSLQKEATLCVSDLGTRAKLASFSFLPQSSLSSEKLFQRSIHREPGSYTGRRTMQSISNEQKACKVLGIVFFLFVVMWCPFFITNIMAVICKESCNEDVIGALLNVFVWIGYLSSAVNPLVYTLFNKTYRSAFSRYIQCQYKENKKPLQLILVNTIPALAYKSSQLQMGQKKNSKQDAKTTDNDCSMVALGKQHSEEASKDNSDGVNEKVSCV

Row | Structure (SMILES) | IC50 [1] [nM] | IC50 [2] [nM] | EC50 [3] [nM]
1 | S=C(NCCN1CCN(c2ncccn2)CC1)C12CC3CC(CC(C3)C1)C2 | 62.3 | > 3330 | –
2 | O=C(NCCN1CCN(c2ncccn2)CC1)C12CC3CC(CC(C3)C1)C2 [ADATANSERIN HYDROCHLORIDE] | 33.7 | 1260 | 2.1
3 | c1ccc(CS/C(=N/CC[N+]2(Cc3ccccc3)CCN(c3ncccn3)CC2)C23CC4CC(CC(C4)C2)C3)cc1 | > 10000 | – | –
4 | Cc1cc2c(cc1Cl)N(C(=O)Nc1ccc(Oc3cccnc3C)nc1)CC2 [SB-242084] | – | 0.33 | –
5 | CS/C(=N/CC[N+]1(C)CCN(c2ncccn2)CC1)C12CC3CC(CC(C3)C1)C2 | > 10000 | – | > 10000
